What was measured:
[1] = tested on: nuclear factor (NF)-κB; assay: NF-κB immunohistochemistry of irradiated skin; type: in vivo, Gottingen mini-pigs
Experimental: After incubation in normal horse serum for 60 min to prevent nonspecific binding, the skin sections were incubated with mouse anti-nuclear factor (NF)-κB (sc-109, 1:200; Santa Cruz Biotechnology, Santa Cruz, CA, USA) and mouse anti-COX-2 (18-7379, 1:200; Zymed, USA) in phosphate buffered saline-Tween (PBS-T overnight at 4° C. The sections were subsequently incubated with biotinylated horse anti-mouse IgG (VECTASTAIN Elite ABC Kit; Vector Laboratories, USA). The immunoreactivity was assessed using the avidin-biotin peroxidase complex (VECTASTAIN Elite ABC Kit; Vector Laboratories). The peroxidase reaction was developed using a diaminobenzidine substrate kit (DAB Substrate Kit SK-4100; Vector Laboratories). As a control, the primary antibodies were omitted from the immunohistochemical analysis of a few test sections in each experiment. The sections were then counterstained with hematoxylin before being mounted.

[2] = tested on: biopsy wound; assay: Healing of biopsy wounds in irradiated skin; type: in vivo, Gottingen mini-pigs; details: biopsy wound 3 days after irradiation
[3] = Topical carbopol gel formulation: permeability and skin irritation; details: pH 6.8
Experimental: A formulation in accordance with embodiments of the present invention appropriate for topical administration was obtained by adding 200 mg of carbopol (Carbopol 934P; Lubrizol, USA) to 2.5 mL of distilled water and solubilizing 200 mg of 6OHM-6-HITC in 2 mL of ethanol. An appropriate amount of the ethanolic dispersion was transferred to the aqueous dispersion of carbopol. Methanol (1.25 mL) was mixed with 1 mL of ethanol and added to the 6OHM-6-HITC and carbopol mixture, which was gradually stirred, and carbopol was allowed to soak for 2 h. Triethanolamine (100 mg; Sigma-Aldrich, USA) was added to neutralize the carbopol solution and facilitate the formation of a gel, after which the pH was adjusted to 6.8. A vehicle cream was prepared using the same ingredients and identical methods as the cream, but 6OHM-6-HITC was omitted from the mixture. […] For topical treatment, 6OHM-6-HITC or the vehicle cream (concentration, 200 mg/cm^2) was spread on the irradiated skin of pigs twice daily for 35 days, and the first application was performed immediately after irradiation.

[4] = tested on: mouse tongues; assay: TUNEL staining of tongue sections (apoptosis); type: in vivo, ICR mice; details: 12 days post-irradiation, control 23.7%
From the text: (§1) The scoring of oral mucositis was based on a modification of the method of Sonis et al. To assess the severity of oral mucositis, mice were anesthetized with isoflurane every day. The oral mucositis score was: 0=normal; 1=partial hyperemia, erythema and swelling; 2=overall hyperemia, erythema and swelling; 3=epidermolysis, hyperemia and erythema; 4=extensive epidermolysis and bleeding; 5=bleeding and abscesses. Myeloperoxidase (MPO) activity is a marker for neutrophils in inflamed tissue. MPO activity was measured in mouse tongues using a modification of the method of Chen et al. After mice had been killed by cervical dislocation 12 days after irradiation, tongue samples (n=10 per group) were removed and stored at −70° C. until required for assay. […] MPO activity was measured using a Microplate Reader (NJ-2300; Biotec, Tokyo, Japan) at 450 nm. MPO activity was calculated by measuring the slope of absorbance calibrated using MPO standards (Wako Biochemicals) and expressed as MPO/g tongue. […] TBARS levels were measured using the Microplate Reader (Biotec) at 540 nm. TBARS levels were calculated by measuring the slope of absorbance calibrated using TBARS standards and expressed as TBARS/g tongue. […] The number of TUNEL-positive cells on the tongue tips were counted and expressed as a percentage. […] Data were analyzed using one-way analysis of variance (ANOVA) followed by the Steel-Dwass test. […]

[5] = tested on: Myeloperoxidase (MPO); assay: Myeloperoxidase (MPO) activity in mouse tongues; type: in vivo, ICR mice; details: 12 days after irradiation
From the text: as §1

[6] = tested on: 2-Thiobarbituric Acid Reactive Substances (TBARS); assay: TBARS levels in mouse tongues; type: in vivo, ICR mice; details: 12 days after irradiation
From the text: as §1

Q: What does the source list for COc1cc2c(CCCCN=C=S)c[nH]c2cc1O [6OHM-6-HITC]?
A: NF-κB expression in irradiated skin vs. vehicle-treated irradiated skin ([1]; 7, 21 and 35 days after irradiation): lower; nuclear NF-κB expression ([1]; irradiated skin, treated): rapidly decreased; healing of the biopsy wound [2]: attenuated the radiation-induced delayed healing; permeability of 6OHM-6-HITC from topical gel formulation [3]: highest permeability; skin irritation by topical gel formulation [3]: without causing skin irritation; percentage of TUNEL-positive cells ([4]; 30 mg/kg i.p.): 9.9%; percentage of TUNEL-positive cells ([4]; 300 mg/kg i.p.): 8.6%; MPO activity vs. control group ([5]; 30 mg/kg i.p.): significantly lower; MPO activity vs. control group ([5]; 300 mg/kg i.p.): significantly lower; TBARS levels vs. control group ([6]; 30 mg/kg i.p.): lower; TBARS levels vs. control group ([6]; 300 mg/kg i.p.): significant decrease

From US12178800B2, “Sulforaphane-melatonin-like compound” (priority 2018, dated 2024)
